# Test results as given in US8557737B2, “Methods of altering poppy characteristics” (priority 2005, dated 2013).
# Tests used:
# Type in all cases: in vivo, Papaver somniferum
# poppy crops [1] = experiment: Example 6: field trial, one or two applications of metsulfuron-methyl after Sunny versus metsulfuron-methyl alone; settings: COMPOUND 1 120 MG/HA + PULSE .2 % V/V at ERU and at BE (two applications, alone)
# Procedure: (§1) All trials were conducted on poppy crops. Seed was treated with Thiram (5.6 g of Thiram 800/kg seed) and Apron (4 g/kg) and sown at a rate of approximately 750 g/ha. Fertilisers were applied at sowing. Most commonly, either 50:50 lime:superphosphate/triple superphosphate at 125 kg/ha, or lime:superphosphate at 250 kg/ha, were mixed with seed and drilled at a depth of 15 mm. In the same operation, NPK (nitrogen:phosphorus:potassium), at various rates, was banded 75 mm below the seed, unless otherwise stated. All crops were subjected to herbicide sprays for weed control, fungicide sprays for disease control, insecticide sprays if appropriate and were irrigated as required.
# (§2) All spray applications were made with a precision sprayer, using Silvan Lurmark flat-fan, low-drift nozzles (LD110-0015). Spray equipment was calibrated to deliver 153 L water/ha.
# (§3) At harvest, a 2 m×4 m quadrat was placed in each plot (3 m×6 m, unless otherwise stated) and capsules hand-picked from this area. Capsules were broken up, seed and capsule material separated and weighed. Capsule moisture readings were taken with a moisture meter. Alkaloid yield data were calculated on Pesticide Research Manager (version 5 for Windows) using the formulae below. Briefly, capsule weight was adjusted for moisture to a dry weight, 5% of seed weight was added to this (this amount of capsule material regularly occurs in seed samples after processing) to give a capsule weight per plot. Seed weight was adjusted to 95% of crude weight. Straw weights were determined by multiplying dry capsule weight by 1.3 (estimated amount of stem material in a commercial harvest) and adjusted to 11% moisture. When Lontrel was applied to crops exact capsule and seed weight data were entered. Analyses of variance and a Multiple Range Test were performed on data using Pesticide Research Manager. Significant differences (P=0.05) between treatments are denoted by different lower case letters adjacent to treatment means in the tables of results.
# Trial to evaluate one or two applications of 120 mg/ha metsulfuron-methyl (Compound 1) after 1 L/ha Sunny, and compare with two applications of metsulfuron-methyl alone. Sunny was applied with crop at 12-14 leaf, metsulfuron-methyl to crop at 12-14 leaf, early run-up and bud-emergence stages. Plant heights were measured at early-full flower and percent lodging was measured on the day of capsule harvest.
# poppy crops [2] = experiment: Example 16: field trial, metsulfuron-methyl, mesosulfuron-methyl and triasulfuron at row cover and ground cover/early run-up, morphine crop; settings: Trt 2: COMPOUND 1 120 MG/HA + PULSE .2% V/V at RC and GC/ERU
# Procedure: as §1, §2
# as §3, with “Manager.” for “Manager. Significant differences (P=0.05) between treatments are denoted by different lower case letters adjacent to treatment means in the tables of results.”
# Trial to evaluate applications of metsulfuron-methyl (Compound 1), mesosulfuron-methyl (Compound 2) and triasulfuron (Compound 3), in a morphine crop. Treatment sprays were applied to crop at row cover and ground cover/early run-up, respectively. Plant heights were assessed 5 weeks after last application and lodging was assessed at capsule harvest.
# poppy crops [3] = experiment: Example 10: field trial, triasulfuron and metsulfuron-methyl, morphine crop; settings: COMPOUND 1 120 MG/HA + PULSE .2 % V/V at GC, RU and BE
# Procedure: as §1, §2, §3
# […] Treatment sprays were applied to crop at ground cover, mid run-up and bud-emergence, respectively.
# poppy crops [4] = experiment: Example 19: field trial, sulfosulfuron, thifensulfuron-methyl and metsulfuron-methyl, morphine crop; settings: 120 MG/HA + PULSE .2 % V/V, applied at M-LRU and LRU-BE
# Procedure: as §1, §2
# as §3, with “Manager.” for “Manager. Significant differences (P=0.05) between treatments are denoted by different lower case letters adjacent to treatment means in the tables of results.”
# Trial to evaluate applications of sulfosulfuron, thifensulfuron-methyl and metsulfuron-methyl, in a morphine crop. Treatment sprays were applied to crop at mid-late run-up and late-run-up/bud-emergence, respectively. Plant heights were measured some 10 weeks after the last application. Lodging was assessed at capsule harvest.
# poppy crops [5] = experiment: Example 18: field trial, triasulfuron, mesosulfuron-methyl and metsulfuron-methyl at row cover, mid run-up and early hook, morphine crop; settings: Trt 2: COMPOUND 1 120 MG/HA + PULSE .2% V/V at RC, MRU and LRU
# Procedure: as §1, §2
# as §3, with “Manager.” for “Manager. Significant differences (P=0.05) between treatments are denoted by different lower case letters adjacent to treatment means in the tables of results.”
# Trial to evaluate applications of triasulfuron, mesosulfuron-methyl and metsulfuron-methyl, in a morphine crop. […] Plant heights were measured 5 weeks after last application and lodging at capsule harvest.
# poppy crops [6] = experiment: Example 12: field trial, metsulfuron-methyl, Sunny and metsulfuron-methyl+Sunny at row cover, early run-up, late run-up, morphine crop; settings: Trt 3: COMPOUND 1 120 MG/HA + PULSE .2% V/V at RC, ERU and LRU
# Procedure: as §1, §2, §3
# Trial to evaluate applications of metsulfuron-methyl (Compound 1), Sunny and metsulfuron-methyl+Sunny, in a morphine crop. Treatment sprays were applied to crop at row cover, early run-up and late run-up. Plant heights were measured at end of flowering.
structure (smiles),measurement,setting,value
"COC(=O)c1ccccc1S(=O)(=O)NC(=O)Nc1nc(C)nc(OC)n1 [Compound 1, metsulfuron-methyl]",CAPSULE/SEED RATIO,poppy crops [1],6.140 a
same,CROP WEIGHT,poppy crops [1],2.46 c t/ha
same,MORPHINE,poppy crops [1],38.8 b kg/ha
same,SEED,poppy crops [1],269 c kg/ha
same,STRAW,poppy crops [1],2194 a kg/ha
same,STRAW MORPHINE,poppy crops [1],1.77 b %
same,PLANT HEIGHT,poppy crops [1]; measured at early-full flower,77.4 cm·days
same,LODGING,poppy crops [1]; measured on the day of capsule harvest,1.0 b %
same,CAPS/SEED RATIO,poppy crops [2],1.740 a
same,CROP WEIGHT,poppy crops [2],2.46 c t/ha
same,MORPHINE,poppy crops [2],37.76 bc kg/ha
same,SEED,poppy crops [2],698 d kg/ha
same,STRAW,poppy crops [2],1749 bc kg/ha
same,STRAW MORPHINE,poppy crops [2],2.15 ab %
same,PLANT HEIGHT,poppy crops [2]; 5 weeks after last application,90.0 c cm
same,CAPSULE/SEED RATIO,poppy crops [3],11.957 a
same,CROP WEIGHT,poppy crops [3],1.86 a t/ha
same,HEIGHT,poppy crops [3],84.2 b cm
same,MORPHINE,poppy crops [3],39.63 a kg/ha
same,SEED,poppy crops [3],105 c kg/ha
same,STRAW,poppy crops [3],1757 a kg/ha
same,STRAW MORPHINE,poppy crops [3],2.25 a %
same,CAPSULE/SEED RATIO,poppy crops [4],6.352
same,CROP WEIGHT,poppy crops [4],1.33 t/ha
same,MORPHINE,poppy crops [4],21.65 kg/ha
same,SEED,poppy crops [4],131 kg/ha
same,STRAW,poppy crops [4],1203 kg/ha
same,STRAW MORPHINE %,poppy crops [4],1.80%
same,PLANT HEIGHT,poppy crops [4]; measured some 10 weeks after last application,72 cm
same,CAPS/SEED RATIO,poppy crops [5],2.543 a
same,CROP WEIGHT,poppy crops [5],2.87 b t/ha
same,MORPHINE,poppy crops [5],46.52 b kg/ha
same,SEED,poppy crops [5],643 c kg/ha
same,STRAW,poppy crops [5],2186 a kg/ha
same,STRAW MORPHINE,poppy crops [5],2.13 c %
same,PLANT HEIGHT,poppy crops [5]; 5 weeks after last application,88.0 cm·days
same,LODGING,poppy crops [5]; at capsule harvest,1.8 a %
same,CAPS/SEED RATIO,poppy crops [6],10.444 a
same,CROP WEIGHT,poppy crops [6],2.24 b t/ha
same,MORPHINE,poppy crops [6],47.11 b kg/ha
same,SEED,poppy crops [6],143 c kg/ha
same,STRAW,poppy crops [6],2099 a kg/ha
same,STRAW MORPHINE,poppy crops [6],2.24 c %
same,HEIGHT,poppy crops [6]; height at end of flowering,83.4 bc cm
